Where two headings read alike, the source gives them in different places.

Experiment [1] concerns primary polyclonal human Vγ9Vδ2 T cells. The experiment is described as follows: Cytokine release assay: TNFα release from γδ T cells. It counts as cell-based. The method, then: Cells (primary polyclonal human Vγ9Vδ2 T cells which have been expanded in vitro and stored frozen at day 12-15 of expansion) are thawed and rinsed twice and centrifuged. Upon elimination of supernatant and resuspension of cells, the cells are incubated for 24 h at 37° C. in the presence of IL2 100 IU/ml (final concentration). The cells are washed and centrifuged, following which the supernatant is eliminated and the cells are resuspended and adjusted to the adequate final concentration. The cells are added to the wells of a 96-well plate.
To one row of wells is added a standard dilution series of […] (BrHPP). Compounds to be tested, in this case (E)-4-hydroxy-3-methyl-2-butenyl pyrophosphate (HDMAPP) and the N-HDMAPP compound of the invention are added to experimental wells, after several dilutions.
Full plates are incubated 24 hours at 37° C. for stimulation of the γδ cells with the test compound and reference compounds, in this case N-HDMAPP, BrHPP and HDMAPP, as further described below. After this time, 100 μl of culture supernatant is taken for TNFα dosage. Measurement of the released TNFα dosage is performed as described by the manufacturer's instruction in the TNFα enzyme immunoassay kit (ref. 11121, Immunotech—Beckman Coulter). OD at 405 nm is read, the OD being proportional to the concentration of released TNFα in the culture supernatant. The data are processed with the Excel software to compare concentration of test compound versus concentration of TNFα and for the calculation of the EC50 for each test compound.
The bioactivity of the compound N-HDMAPP was assessed using a TNFα release assay as described above. Compounds BrHPP and HDMAPP were included for purpose of comparison. […] As will be appreciated, any other suitable assays such as cell amplification may be used in assessing compounds.

The next experiment relates to γδ T cells. The conditions noted are these: at best; Wilhelm et al., 2003; cited from earlier work.
Setting [2] is: 24 hours stimulation at 37° C., TNFα enzyme immunoassay, relative screening test, read-out: in vitro EC50, TNFα release.

The term EC50 denotes the concentration that produces a half-maximal response. Consider `CC(O)(CBr)CCOP(=O)(O)OP(=O)(O)O` (stereo not drawn) [BrHPP, 3-(bromomethyl)-3-butanol-1-yl-diphosphate], for which the EC50 in experiment [1] (Homo sapiens, T-cell, prior assays, calibrated cells, read-out: EC50 in prior assays with calibrated cells using a BrHPP-standard composition) was about 15 nM.
In the case of `C/C(=C\COP(=O)(O)OP(=O)(O)O)CO` [HDMAPP, (E)-4-hydroxy-3-methyl-2-butenyl pyrophosphate], the 50% effective concentration (EC50) in experiment [1] (setting [2]) stood at 2.1 nM.
`NCCC(O)(P(=O)(O)O)P(=O)(O)O` [pamidronate]: in the experiment on γδ T cells, the “increase in γδ T cell count” value is given as at most 2 fold.
For “(E)-4-hydroxy-3-methylbut-2-enyl pyrophosphoramidate [N-HDMAPP]”, the EC50 in experiment [1] (setting [2]) is 0.63 nM. Also, the “maximum TNFα release” value in experiment [1] (maximum level, FIG. 1) is “over 1800 pg/ml”. The “increased potency over the most potent compounds tested so far” value in experiment [1] (ratio of EC50, TNFα release) is 3-4.

Values taken from patent publication US7767842B2, “Class of γδ T cells activators and use thereof” (Innate Pharma SA, priority 2002, dated 2010).
